{"source": "paper PMC6792352", "about": "“Limited Chemical Structural Diversity Found to Modulate Thyroid Hormone Receptor in the Tox21 Chemical Library” (Environmental Health Perspectives, 2019)", "note": "Where a name gives a salt, the structure may show the parent alone.", "data": [{"assay": "in vitro", "conditions": "rat, gh3-tre-luc cells, AC50 (uM) modified / 1000", "units": {"CC50 at 24 h": "µM"}, "values": [{"smiles": "Clc1c(Cl)c(Cl)c(Cl)c(Cl)c1Cl", "note": "[Hexachlorobenzene]", "CC50 at 24 h": "> 5"}, {"smiles": "CCOc1cc(CC(=O)N[C@@H](CC(C)C)c2ccccc2N2CCCCC2)ccc1C(=O)O", "note": "[Repaglinide]", "CC50 at 24 h": "> 20"}, {"smiles": "C=CCOC(=O)c1ccccc1C(=O)OCC=C", "note": "[Diallyl phthalate]", "CC50 at 24 h": "> 90"}, {"smiles": "CCCCc1ccc(N)cc1", "note": "[4-Butylaniline]", "CC50 at 24 h": "> 90"}, {"smiles": "CCN(CC)CCOC[C@H]1O[C@@H](O)[C@H](OCCN(CC)CC)[C@@H](O)[C@@H]1O", "note": "[Diethylaminoethyl-sephacel]", "CC50 at 24 h": "> 50"}, {"smiles": "COc1ccc2cc1Oc1cc3c(cc1OC)CC[N+](C)(C)[C@H]3Cc1ccc(cc1)Oc1c(OC)c(OC)cc3c1[C@@H](C2)[N+](C)(C)CC3", "note": "[Metocurine iodide]", "CC50 at 24 h": "> 50"}, {"smiles": "CCCCCCC(O)CO", "note": "(stereo not shown) [1,2-Octanediol]", "CC50 at 24 h": "> 90"}, {"smiles": "c1ccc2[nH]ccc2c1", "note": "[Indole]", "CC50 at 24 h": "> 90"}, {"smiles": "CCOP(=S)(OCC)Oc1cc(C)nc(C(C)C)n1", "note": "[Diazinon]", "CC50 at 24 h": "> 90"}, {"smiles": "Clc1cccc(Cl)c1N=C1NCCN1", "note": "[Clonidine hydrochloride]", "CC50 at 24 h": "> 90"}, {"smiles": "O=C(O)C[C@H](NC(=O)OCc1ccccc1)C(=O)O", "note": "[N-[(Benzyloxy)carbonyl]-L-aspartic acid]", "CC50 at 24 h": "> 90"}, {"smiles": "CCCCOC(=O)CCS", "note": "[Butyl 3-mercaptopropionate]", "CC50 at 24 h": "> 90"}, {"smiles": "O=C(N[C@H]1CN2CCC1CC2)c1ccc2c(c1)OCCO2", "note": "[PHA-00568487]", "CC50 at 24 h": "> 90"}, {"smiles": "C[N+]1(CC2COC(c3ccccc3)(C3CCCCC3)O2)CCCCC1", "note": "(stereo not shown) [Oxapium iodide]", "CC50 at 24 h": "> 50"}, {"smiles": "O=S1(=O)CCCO1", "note": "[1,3-Propane sultone]", "CC50 at 24 h": "> 90"}, {"smiles": "CCCOC(=O)c1ccccc1", "note": "[Propyl benzoate]", "CC50 at 24 h": "> 90"}, {"smiles": "O=C(Nc1ccccc1)c1cc([N+](=O)[O-])ccc1Cl", "note": "[2-Chloro-5-nitro-N-phenylbenzamide]", "CC50 at 24 h": 49.9}, {"smiles": "C[C@H](O)CN(C)C", "note": "[(S)-(+)-1-Dimethylamino-2-propanol]", "CC50 at 24 h": "> 50"}, {"smiles": "C=CC[C@]1(O)CC[C@H]2[C@@H]3CCC4=CCCC[C@@H]4[C@H]3CC[C@@]21C", "note": "[Allylestrenol]", "CC50 at 24 h": 41.6}, {"smiles": "CC(C)N1CCN(c2ccc(OC[C@H]3CO[C@](Cn4cncn4)(c4ccc(Cl)cc4Cl)O3)cc2)CC1", "note": "(racemic) [Terconazole]", "CC50 at 24 h": 5.35}, {"smiles": "NS(=O)(=O)c1cc2c(cc1C(F)(F)F)NC(Cc1ccccc1)NS2(=O)=O", "note": "(stereo not shown) [Bendroflumethiazide]", "CC50 at 24 h": "> 20"}, {"smiles": "CC(C)=CCCC(C)C=O", "note": "(stereo not shown) [2,6-Dimethylhept-5-enal]", "CC50 at 24 h": "> 90"}, {"smiles": "C=C[Si](OCC)(OCC)OCC", "note": "[Ethenyl(triethoxy)silane]", "CC50 at 24 h": "> 90"}, {"smiles": "CNCCCN1c2ccccc2CCc2ccccc21", "note": "[Desipramine hydrochloride]", "CC50 at 24 h": 7.08}, {"smiles": "CCCC1COC(Cn2cncn2)(c2ccc(Cl)cc2Cl)O1", "note": "(stereo not shown) [Propiconazole]", "CC50 at 24 h": 61}, {"smiles": "O=C(c1ccccc1)c1ccccc1", "note": "[Benzophenone]", "CC50 at 24 h": "> 50"}, {"smiles": "CCc1cccc(C)c1N(C(=O)CCl)[C@@H](C)COC", "note": "[S-Metolachlor]", "CC50 at 24 h": "> 90"}, {"smiles": "O=C(N[C@@H]1N=C(c2ccccc2F)c2cccc3c2N(CC3)C1=O)c1cc2ccccc2[nH]1", "note": "[N-[(3R)-1-(2-Fluorophenyl)-4-oxo-3,4,6,7-tetrahydro[1,4]diazepino[6,7,1-hi]indol-3-yl]-1H-indole-2-carboxamide]", "CC50 at 24 h": "> 50"}, {"smiles": "Nc1cc(S(=O)(=O)O)cc2cc(S(=O)(=O)O)cc(O)c12", "note": "[Monosodium 8-amino-1-naphthol-3,6-disulfonate]", "CC50 at 24 h": "> 90"}]}, {"assay": "in vitro", "conditions": "rat, gh3-tre-luc cells, AC50 (uM) modified / 1000, Tox21_110001=Tox21_111058; viability, 1 nM T3 present, 24 h", "units": {"CC50 at 24 h": "µM"}, "values": [{"smiles": "C[C@]12CC[C@H]3[C@@H](CCC4=CC(=O)CC[C@@]43C)[C@@H]1CC[C@H]2O", "note": "[Epitestosterone]", "CC50 at 24 h": "> 50"}]}, {"assay": "in vitro", "conditions": "rat, gh3-tre-luc cells, AC50 (uM) modified / 1000, Tox21_110001=Tox21_112069; viability, 1 nM T3 present, 24 h", "units": {"CC50 at 24 h": "µM"}, "values": [{"smiles": "CCOP(=O)(OCC)O/C(=C\\Cl)c1ccc(Cl)cc1Cl", "note": "[Chlorfenvinphos]", "CC50 at 24 h": "> 50"}]}, {"assay": "in vitro", "conditions": "rat, gh3-tre-luc cells, AC50 (uM) modified / 1000, Tox21_110001=Tox21_301573; viability, 1 nM T3 present, 24 h", "units": {"CC50 at 24 h": "µM"}, "values": [{"smiles": "CCOP(=O)(OCC)O/C(=C\\Cl)c1ccc(Cl)cc1Cl", "note": "[Chlorfenvinphos]", "CC50 at 24 h": "> 90"}]}, {"assay": "in vitro", "conditions": "rat, gh3-tre-luc cells, AC50 (uM) modified / 1000, Tox21_110001=Tox21_302624; viability, 1 nM T3 present, 24 h", "units": {"CC50 at 24 h": "µM"}, "values": [{"smiles": "CC1CCC(=O)O1", "note": "(stereo not shown) [4-Pentanolide]", "CC50 at 24 h": "> 90"}]}, {"assay": "in vitro", "conditions": "rat, gh3-tre-luc cells, AC50 (uM) modified / 1000, Tox21_110001=Tox21_303313; viability, 1 nM T3 present, 24 h", "units": {"CC50 at 24 h": "µM"}, "values": [{"smiles": "CCCCC(CC)COP(=O)(Oc1ccccc1)Oc1ccccc1", "note": "(stereo not shown) [2-Ethylhexyl diphenyl phosphate]", "CC50 at 24 h": "> 90"}]}]}
